What was measured:
Format in all cases: in vivo
[1] = tested on: barnyardgrass (Echinochloa crus-galli); experiment: Test B flooded paddy; conditions: Echinochloa crus-galli, 336 h; 250 g ai/ha, Flood, 13 to 15 days, scale 0 (no effect) to 100 (complete control); read-out: Plant response rating, Barnyardgrass
Procedure, shortened: (§1)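 Pots were flooded to 3 cm above the soil surface at treatment, compound applied directly to the paddy water, and that depth held throughout. Plants were kept in a greenhouse for 13 to 15 days, then visually rated against untreated controls.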

[2] = tested on: sedge, umbrella (small-flower umbrella sedge, Cyperus difformis); experiment: Test B flooded paddy; conditions: Cyperus difformis, 336 h; 250 g ai/ha, Flood, 13 to 15 days, scale 0 (no effect) to 100 (complete control); read-out: Plant response rating, Sedge, Umbrella
Procedure, shortened: as §1

[3] = tested on: ducksalad (Heteranthera limosa); experiment: Test B flooded paddy; conditions: Heteranthera limosa, 336 h; 250 g ai/ha, Flood, 13 to 15 days, scale 0 (no effect) to 100 (complete control); read-out: Plant response rating, Ducksalad
Procedure, shortened: as §1

[4] = tested on: rice (Oryza sativa); experiment: Test B flooded paddy; conditions: Oryza sativa, 336 h; 250 g ai/ha, Flood, 13 to 15 days, scale 0 (no effect) to 100 (complete control); read-out: Plant response rating, Rice
Procedure, shortened: as §1

[5] = tested on: Italian ryegrass (Lolium multiflorum); experiment: Test A postemergence; conditions: Lolium multiflorum, post-emergence, 240 h, 0 to 100 scale, read-out: Plant response rating, Ryegrass, Italian
Procedure, shortened: (§2)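 Compounds in non-phytotoxic solvent with surfactant applied as soil spray preemergence, or postemergence to plants 2-10 cm at one- to two-leaf stage, in loam/sand. After approximately 10 days in greenhouse, injury rated visually versus untreated controls, 0 (no effect) to 100 (complete control).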

[6] = tested on: barnyardgrass (Echinochloa crus-galli); experiment: Test A postemergence; conditions: Echinochloa crus-galli, post-emergence, 240 h, 0 to 100 scale, read-out: Plant response rating, Barnyardgrass
Procedure, shortened: as §2

[7] = tested on: kochia (Kochia scoparia); experiment: Test A postemergence; conditions: Bassia scoparia, post-emergence, 240 h, 0 to 100 scale, read-out: Plant response rating, Kochia
Procedure, shortened: as §2

[8] = tested on: pigweed (Amaranthus retroflexus); experiment: Test A postemergence; conditions: Amaranthus retroflexus, post-emergence, 240 h, 0 to 100 scale, read-out: Plant response rating, Pigweed
Procedure, shortened: as §2

[9] = tested on: corn (Zea mays); experiment: Test A postemergence; conditions: Zea mays, post-emergence, 240 h, 0 to 100 scale
Procedure, shortened: as §2

[10] = tested on: ragweed (common ragweed, Ambrosia elatior); experiment: Test A postemergence; conditions: Ambrosia artemisiifolia, post-emergence, 240 h, 0 to 100 scale, read-out: Plant response rating, Ragweed
Procedure, shortened: as §2

[11] = tested on: giant foxtail (Setaria faberii); experiment: Test A postemergence; conditions: Setaria faberi, post-emergence, 240 h, 0 to 100 scale, read-out: Plant response rating, Foxtail, Giant
Procedure, shortened: as §2

[12] = tested on: wheat (Triticum aestivum); experiment: Test A postemergence; conditions: Triticum aestivum, post-emergence, 240 h, 0 to 100 scale, read-out: Plant response rating, Wheat
Procedure, shortened: as §2

[13] = tested on: blackgrass (Alopecurus myosuroides); experiment: Test A postemergence; conditions: Alopecurus myosuroides, post-emergence, 240 h, 0 to 100 scale, read-out: Plant response rating, Blackgrass
Procedure, shortened: as §2

[14] = tested on: galium (catchweed bedstraw, Galium aparine); experiment: Test A postemergence; conditions: Galium, post-emergence, 240 h, 0 to 100 scale, read-out: Plant response rating, Galium
Procedure, shortened: as §2

[15] = tested on: Italian ryegrass (Lolium multiflorum); experiment: Test A preemergence; conditions: Lolium multiflorum, pre-emergence, 240 h
Procedure, shortened: as §2

[16] = tested on: barnyardgrass (Echinochloa crus-galli); experiment: Test A preemergence; conditions: Echinochloa crus-galli, pre-emergence, 240 h
Procedure, shortened: as §2

[17] = tested on: kochia (Kochia scoparia); experiment: Test A preemergence; conditions: Bassia scoparia, pre-emergence, 240 h
Procedure, shortened: as §2

[18] = tested on: pigweed (Amaranthus retroflexus); experiment: Test A preemergence; conditions: Amaranthus retroflexus, pre-emergence, 240 h
Procedure, shortened: as §2

[19] = tested on: ragweed (common ragweed, Ambrosia elatior); experiment: Test A preemergence; conditions: Ambrosia artemisiifolia, pre-emergence, 240 h
Procedure, shortened: as §2

[20] = tested on: giant foxtail (Setaria faberii); experiment: Test A preemergence; conditions: Setaria faberi, pre-emergence, 240 h
Procedure, shortened: as §2

SMILES: Fc1cccc(Oc2ncc(Cl)cn2)c1Oc1ccc(Cl)nc1 [Compound 20]
- pest or weed control at 250 g/ha [1]: 20%
- pest or weed control at 250 g/ha [2]: 90%
- pest or weed control at 250 g/ha [3]: 95%
- plant injury at 250 g/ha [4]: 15%
- pest or weed control at 1000 g/ha ([5]; 1000 g ai/ha): 40%
- pest or weed control at 1000 g/ha ([6]; 1000 g ai/ha, 0 no effect, 100 complete control): 90%
- pest or weed control at 1000 g/ha ([7]; 1000 g ai/ha): 90%
- pest or weed control at 1000 g/ha ([8]; 1000 g ai/ha): 100%
- Corn plant response rating (crop injury, 0 = no effect, 100 = complete kill) at 1000 g/ha ([9]; 1000 g ai/ha): 50%
- pest or weed control at 1000 g/ha ([10]; 1000 g ai/ha): 60%
- pest or weed control at 1000 g/ha ([11]; 1000 g ai/ha): 90%
- plant injury at 1000 g/ha ([12]; 1000 g ai/ha): 50%
- pest or weed control at 1000 g/ha ([13]; 1000 g ai/ha): 60%
- pest or weed control at 1000 g/ha ([14]; 1000 g ai/ha): 90%
- pest or weed control at 1000 g/ha ([15]; 1000 g ai/ha, 0 to 100 scale, read-out: Plant response rating, Ryegrass, Italian): 70%
- pest or weed control at 1000 g/ha ([16]; 1000 g ai/ha, 0 to 100 scale, read-out: Plant response rating, Barnyardgrass): 100%
- pest or weed control at 1000 g/ha ([17]; 1000 g ai/ha, 0 to 100 scale, read-out: Plant response rating, Kochia): 90%
- pest or weed control at 1000 g/ha ([18]; 1000 g ai/ha, 0 to 100 scale, read-out: Plant response rating, Pigweed): 100%
- pest or weed control at 1000 g/ha ([19]; 1000 g ai/ha, 0 to 100 scale, read-out: Plant response rating, Ragweed): 40%
- pest or weed control at 1000 g/ha ([20]; 1000 g ai/ha, 0 to 100 scale, read-out: Plant response rating, Foxtail, Giant): 100%

SMILES: FC(F)c1cnc(Oc2c(Br)cccc2Oc2ncc(Cl)cn2)s1 [Compound 10, 2-[3-bromo-2-[[5-(difluoromethyl)-2-thiazolyl]oxy]phenoxy]-5-chloropyrimidine]
- pest or weed control at 250 g/ha [1]: 0%
- pest or weed control at 250 g/ha [2]: 0%
- pest or weed control at 250 g/ha [3]: 0%
- plant injury at 250 g/ha [4]: 0%
- pest or weed control at 31 g/ha ([5]; 31 g ai/ha): 0%
- pest or weed control at 125 g/ha ([5]; 125 g ai/ha): 60%
- pest or weed control at 31 g/ha ([6]; 31 g ai/ha): 0%
- pest or weed control at 125 g/ha ([6]; 125 g ai/ha): 20%
- pest or weed control at 31 g/ha ([7]; 31 g ai/ha): 20%
- pest or weed control at 125 g/ha ([7]; 125 g ai/ha): 80%
- pest or weed control at 31 g/ha ([8]; 31 g ai/ha): 90%
- pest or weed control at 125 g/ha ([8]; 125 g ai/ha): 100%
- Corn plant response rating (crop injury, 0 = no effect, 100 = complete kill) at 31 g/ha ([9]; 31 g ai/ha): 0%
- Corn plant response rating (crop injury, 0 = no effect, 100 = complete kill) at 125 g/ha ([9]; 125 g ai/ha): 10%
- pest or weed control at 31 g/ha ([10]; 31 g ai/ha): 0%
- pest or weed control at 125 g/ha ([10]; 125 g ai/ha): 30%
- pest or weed control at 31 g/ha ([11]; 31 g ai/ha): 0%
- pest or weed control at 125 g/ha ([11]; 125 g ai/ha): 20%
- plant injury at 31 g/ha ([12]; 31 g ai/ha): 0%
- plant injury at 125 g/ha ([12]; 125 g ai/ha): 0%
- pest or weed control at 31 g/ha ([13]; 31 g ai/ha): 10%
- pest or weed control at 125 g/ha ([13]; 125 g ai/ha): 70%
- pest or weed control at 31 g/ha ([14]; 31 g ai/ha): 50%
- pest or weed control at 125 g/ha ([14]; 125 g ai/ha): 100%
- pest or weed control at 31 g/ha ([15]; 31 g ai/ha, 0 to 100 scale (0 no effect, 100 complete control), read-out: Ryegrass, Italian plant response rating): 0%
- pest or weed control at 125 g/ha ([15]; 125 g ai/ha, 0 to 100 scale, read-out: Plant response rating, Ryegrass, Italian): 40%
- pest or weed control at 31 g/ha ([16]; 31 g ai/ha, 0 to 100 scale (0 no effect, 100 complete control), read-out: Barnyardgrass plant response rating): 0%
- pest or weed control at 125 g/ha ([16]; 125 g ai/ha, 0 to 100 scale, read-out: Plant response rating, Barnyardgrass): 30%
- pest or weed control at 31 g/ha ([17]; 31 g ai/ha, 0 to 100 scale (0 no effect, 100 complete control), read-out: Kochia plant response rating): 0%
- pest or weed control at 125 g/ha ([17]; 125 g ai/ha, 0 to 100 scale, read-out: Plant response rating, Kochia): 50%
- pest or weed control at 31 g/ha ([18]; 31 g ai/ha, 0 to 100 scale (0 no effect, 100 complete control), read-out: Pigweed plant response rating): 90%
- pest or weed control at 125 g/ha ([18]; 125 g ai/ha, 0 to 100 scale, read-out: Plant response rating, Pigweed): 100%
- pest or weed control at 31 g/ha ([19]; 31 g ai/ha, 0 to 100 scale (0 no effect, 100 complete control), read-out: Ragweed plant response rating): 0%
- pest or weed control at 125 g/ha ([19]; 125 g ai/ha, 0 to 100 scale, read-out: Plant response rating, Ragweed): 0%
- pest or weed control at 31 g/ha ([20]; 31 g ai/ha, 0 to 100 scale (0 no effect, 100 complete control), read-out: Foxtail, Giant plant response rating): 40%
- pest or weed control at 125 g/ha ([20]; 125 g ai/ha, 0 to 100 scale, read-out: Plant response rating, Foxtail, Giant): 90%

Source: patent US20170190671A1, “BIS(ARYL)CATECHOL DERIVATIVES AS HERBICIDES” (E I DU PONT DE NEMOURS AND COMPANY, priority 2014, published 2017)
